Assay results taken from ChEMBL document CHEMBL5291721, “A preclinical secondary pharmacology resource illuminates target-adverse drug reaction associations of marketed drugs” (Nat Commun, 2023).

How the values were obtained:
[1] = target: T1, Estrogen receptor (Homo sapiens, UniProt P03372)
T1 sequence (P03372 whole entry): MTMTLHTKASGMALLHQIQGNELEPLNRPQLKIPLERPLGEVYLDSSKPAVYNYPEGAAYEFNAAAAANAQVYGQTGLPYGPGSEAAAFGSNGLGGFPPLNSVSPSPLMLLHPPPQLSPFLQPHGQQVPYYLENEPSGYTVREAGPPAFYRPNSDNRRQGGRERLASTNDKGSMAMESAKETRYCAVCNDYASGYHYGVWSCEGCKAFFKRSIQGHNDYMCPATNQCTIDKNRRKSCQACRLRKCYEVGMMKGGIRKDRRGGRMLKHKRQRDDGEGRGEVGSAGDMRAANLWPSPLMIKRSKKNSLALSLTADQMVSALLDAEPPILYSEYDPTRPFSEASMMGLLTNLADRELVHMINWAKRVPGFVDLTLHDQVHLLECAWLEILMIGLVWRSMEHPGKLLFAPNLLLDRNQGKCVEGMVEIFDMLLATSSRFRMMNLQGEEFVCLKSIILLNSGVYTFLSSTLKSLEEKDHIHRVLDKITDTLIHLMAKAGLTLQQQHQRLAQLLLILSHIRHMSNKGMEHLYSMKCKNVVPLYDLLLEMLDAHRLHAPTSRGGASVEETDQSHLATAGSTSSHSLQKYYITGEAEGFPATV

[2] = target: Sodium-dependent noradrenaline transporter (Homo sapiens, UniProt P23975)
[3] = target: T2, Alpha-1A adrenergic receptor (Homo sapiens, UniProt P35348); assay type: functional, cell-based
T2 sequence (P35348 whole entry): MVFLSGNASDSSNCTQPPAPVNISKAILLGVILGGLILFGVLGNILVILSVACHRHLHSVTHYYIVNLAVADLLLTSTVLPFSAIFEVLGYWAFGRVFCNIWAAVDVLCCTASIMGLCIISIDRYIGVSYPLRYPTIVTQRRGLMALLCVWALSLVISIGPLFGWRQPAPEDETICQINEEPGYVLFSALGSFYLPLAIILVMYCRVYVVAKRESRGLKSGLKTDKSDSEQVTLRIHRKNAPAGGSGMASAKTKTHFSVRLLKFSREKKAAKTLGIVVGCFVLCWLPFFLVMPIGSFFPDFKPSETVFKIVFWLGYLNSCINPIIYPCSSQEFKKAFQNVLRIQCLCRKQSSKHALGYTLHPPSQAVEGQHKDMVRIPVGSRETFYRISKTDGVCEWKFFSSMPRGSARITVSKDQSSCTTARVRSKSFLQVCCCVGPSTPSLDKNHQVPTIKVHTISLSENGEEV

[4] = target: Motilin receptor (Homo sapiens, UniProt O43193)
[5] = target: Histamine H1 receptor (Homo sapiens, UniProt P35367)
[6] = target: 5-hydroxytryptamine receptor 2B (Homo sapiens, UniProt P41595); assay type: functional, cell-based
[7] = target: Cannabinoid receptor 1 (Homo sapiens, UniProt P21554); assay type: functional, cell-based
[8] = target: T3, Progesterone receptor (Homo sapiens, UniProt P06401); assay type: functional
T3 sequence (P06401 whole entry): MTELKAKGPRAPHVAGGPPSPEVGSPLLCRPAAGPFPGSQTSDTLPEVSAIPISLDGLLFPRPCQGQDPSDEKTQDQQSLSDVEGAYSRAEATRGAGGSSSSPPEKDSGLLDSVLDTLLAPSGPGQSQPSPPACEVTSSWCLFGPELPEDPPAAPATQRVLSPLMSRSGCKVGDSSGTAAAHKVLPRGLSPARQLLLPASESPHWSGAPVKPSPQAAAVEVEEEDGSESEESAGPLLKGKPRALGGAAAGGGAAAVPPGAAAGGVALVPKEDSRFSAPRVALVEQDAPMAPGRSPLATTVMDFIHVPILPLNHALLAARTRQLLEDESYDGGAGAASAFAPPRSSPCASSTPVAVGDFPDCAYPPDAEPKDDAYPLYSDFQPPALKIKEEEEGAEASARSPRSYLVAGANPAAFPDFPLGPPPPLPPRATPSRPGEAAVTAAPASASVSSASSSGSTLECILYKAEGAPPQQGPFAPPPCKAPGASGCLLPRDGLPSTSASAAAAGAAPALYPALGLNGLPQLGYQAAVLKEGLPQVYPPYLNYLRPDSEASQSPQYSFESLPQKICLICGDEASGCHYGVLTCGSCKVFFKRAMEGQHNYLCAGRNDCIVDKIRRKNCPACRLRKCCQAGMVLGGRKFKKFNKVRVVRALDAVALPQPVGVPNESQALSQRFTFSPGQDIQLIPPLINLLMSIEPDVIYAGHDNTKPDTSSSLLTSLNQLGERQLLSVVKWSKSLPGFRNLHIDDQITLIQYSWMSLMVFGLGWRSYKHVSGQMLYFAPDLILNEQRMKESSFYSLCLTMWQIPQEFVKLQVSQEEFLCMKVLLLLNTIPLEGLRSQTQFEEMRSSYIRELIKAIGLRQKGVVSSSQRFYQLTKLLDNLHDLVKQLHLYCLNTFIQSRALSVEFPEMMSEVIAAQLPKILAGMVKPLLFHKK

[9] = target: T4, Type-1 angiotensin II receptor (Homo sapiens, UniProt P30556)
T4 sequence (P30556 whole entry): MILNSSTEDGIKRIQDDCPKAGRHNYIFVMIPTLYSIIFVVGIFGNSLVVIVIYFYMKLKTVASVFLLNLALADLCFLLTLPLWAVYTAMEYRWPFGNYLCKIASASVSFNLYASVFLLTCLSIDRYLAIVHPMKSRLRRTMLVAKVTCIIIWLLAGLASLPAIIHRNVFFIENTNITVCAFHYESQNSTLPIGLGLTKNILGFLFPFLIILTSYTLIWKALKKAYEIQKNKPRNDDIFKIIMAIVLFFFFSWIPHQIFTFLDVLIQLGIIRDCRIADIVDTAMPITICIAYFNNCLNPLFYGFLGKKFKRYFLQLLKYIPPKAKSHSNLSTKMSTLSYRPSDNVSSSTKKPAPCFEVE
Also: assay procedure not described here.

Chain of Motilin receptor (O43193 whole entry): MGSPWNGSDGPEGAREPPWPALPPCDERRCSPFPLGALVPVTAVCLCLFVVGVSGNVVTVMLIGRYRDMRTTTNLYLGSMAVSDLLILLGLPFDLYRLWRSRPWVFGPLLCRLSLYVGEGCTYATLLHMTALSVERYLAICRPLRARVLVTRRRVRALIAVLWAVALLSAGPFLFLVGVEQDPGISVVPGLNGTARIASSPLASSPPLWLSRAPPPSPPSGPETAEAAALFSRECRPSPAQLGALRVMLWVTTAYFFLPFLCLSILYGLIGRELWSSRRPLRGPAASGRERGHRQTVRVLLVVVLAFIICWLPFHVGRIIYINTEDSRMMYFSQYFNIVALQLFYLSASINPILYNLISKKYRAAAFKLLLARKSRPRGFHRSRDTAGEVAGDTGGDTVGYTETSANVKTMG
Chain of Cannabinoid receptor 1 (P21554 whole entry): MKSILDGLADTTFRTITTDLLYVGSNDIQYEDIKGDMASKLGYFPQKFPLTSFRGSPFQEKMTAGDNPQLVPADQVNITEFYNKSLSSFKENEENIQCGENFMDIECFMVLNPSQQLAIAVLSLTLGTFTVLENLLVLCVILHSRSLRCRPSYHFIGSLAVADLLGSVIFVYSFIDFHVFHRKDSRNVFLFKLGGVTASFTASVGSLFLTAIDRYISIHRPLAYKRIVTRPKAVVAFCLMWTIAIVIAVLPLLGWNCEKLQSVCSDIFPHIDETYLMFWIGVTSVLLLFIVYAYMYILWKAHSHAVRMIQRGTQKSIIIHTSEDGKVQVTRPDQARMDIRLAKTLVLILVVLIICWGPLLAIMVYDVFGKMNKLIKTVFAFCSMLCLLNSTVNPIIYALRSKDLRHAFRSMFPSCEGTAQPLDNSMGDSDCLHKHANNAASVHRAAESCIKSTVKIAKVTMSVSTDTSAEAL
Chain of Histamine H1 receptor (P35367 whole entry): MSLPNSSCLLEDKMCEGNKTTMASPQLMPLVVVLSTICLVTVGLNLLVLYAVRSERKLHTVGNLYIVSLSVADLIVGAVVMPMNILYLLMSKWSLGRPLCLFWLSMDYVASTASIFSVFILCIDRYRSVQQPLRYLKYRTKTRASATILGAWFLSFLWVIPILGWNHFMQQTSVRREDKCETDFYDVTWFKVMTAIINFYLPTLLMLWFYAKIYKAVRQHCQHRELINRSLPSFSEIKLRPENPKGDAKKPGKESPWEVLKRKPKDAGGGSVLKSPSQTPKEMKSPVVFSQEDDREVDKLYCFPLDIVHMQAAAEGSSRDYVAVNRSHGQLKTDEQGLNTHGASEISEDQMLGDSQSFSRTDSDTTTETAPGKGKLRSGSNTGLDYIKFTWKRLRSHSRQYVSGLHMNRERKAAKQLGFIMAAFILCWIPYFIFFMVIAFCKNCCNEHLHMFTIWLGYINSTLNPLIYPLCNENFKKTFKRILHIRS
Chain of 5-hydroxytryptamine receptor 2B (P41595 whole entry): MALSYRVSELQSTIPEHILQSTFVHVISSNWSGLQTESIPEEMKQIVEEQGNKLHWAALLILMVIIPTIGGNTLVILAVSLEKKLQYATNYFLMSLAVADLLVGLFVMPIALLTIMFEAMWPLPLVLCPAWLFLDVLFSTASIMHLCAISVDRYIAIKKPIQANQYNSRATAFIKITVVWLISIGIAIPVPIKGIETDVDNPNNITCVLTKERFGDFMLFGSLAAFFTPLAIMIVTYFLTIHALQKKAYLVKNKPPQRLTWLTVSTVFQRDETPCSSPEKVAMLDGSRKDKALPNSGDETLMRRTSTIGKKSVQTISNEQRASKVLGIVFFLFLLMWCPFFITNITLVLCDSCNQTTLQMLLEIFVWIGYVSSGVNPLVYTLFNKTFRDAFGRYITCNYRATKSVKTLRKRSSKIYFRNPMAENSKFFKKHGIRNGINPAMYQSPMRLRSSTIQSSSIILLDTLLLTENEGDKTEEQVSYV
Chain of Sodium-dependent noradrenaline transporter (P23975 whole entry): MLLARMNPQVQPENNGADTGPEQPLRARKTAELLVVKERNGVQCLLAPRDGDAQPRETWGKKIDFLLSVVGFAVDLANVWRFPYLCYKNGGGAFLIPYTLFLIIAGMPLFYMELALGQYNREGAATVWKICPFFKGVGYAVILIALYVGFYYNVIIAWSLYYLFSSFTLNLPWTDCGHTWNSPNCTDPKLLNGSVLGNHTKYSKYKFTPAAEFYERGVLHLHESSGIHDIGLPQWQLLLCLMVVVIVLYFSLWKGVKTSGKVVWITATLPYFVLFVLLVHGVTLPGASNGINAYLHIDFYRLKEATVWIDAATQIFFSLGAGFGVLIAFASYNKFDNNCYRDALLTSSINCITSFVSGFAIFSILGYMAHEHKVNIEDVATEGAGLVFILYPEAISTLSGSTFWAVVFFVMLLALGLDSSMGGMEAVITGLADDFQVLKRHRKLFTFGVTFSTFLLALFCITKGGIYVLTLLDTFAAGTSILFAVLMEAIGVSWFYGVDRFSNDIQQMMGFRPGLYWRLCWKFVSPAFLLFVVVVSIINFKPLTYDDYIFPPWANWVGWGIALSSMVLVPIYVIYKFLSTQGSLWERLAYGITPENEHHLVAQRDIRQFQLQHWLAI

Molecule: O=C(C[S+]([O-])C(c1ccccc1)c1ccccc1)NO (stereo not drawn)
- AC50 [1]: > 30 µM
- AC50 [2]: > 30 µM
- AC50 [3]: > 30 µM
- AC50 [4]: > 30 µM
- AC50 [5]: > 30 µM
- AC50 [6]: > 30 µM
- AC50 [7]: > 30 µM
- AC50 [8]: > 30 µM
- AC50 [9]: > 30 µM

Molecule: CCC(C(=O)O)c1ccc(CC(C)C)cc1 (stereo not drawn) [BUTIBUFEN]
- AC50 [1]: > 30 µM
- AC50 [2]: > 30 µM
- AC50 [3]: > 30 µM
- AC50 [4]: > 30 µM
- AC50 [5]: > 30 µM
- AC50 [6]: > 30 µM
- AC50 [7]: > 30 µM
- AC50 [8]: > 30 µM
- AC50 [9]: > 30 µM

Molecule: CCCCCOC(=O)Nc1nc(=O)n([C@@H]2O[C@H](C)[C@@H](O)[C@H]2O)cc1F [CAPECITABINE]
- AC50 [1]: > 30 µM
- AC50 [2]: > 30 µM
- AC50 [3]: > 30 µM
- AC50 [4]: > 30 µM
- AC50 [5]: > 30 µM
- AC50 [6]: > 30 µM
- AC50 [7]: > 30 µM
- AC50 [8]: > 30 µM
- AC50 [9]: > 30 µM

Molecule: O=C1CN=C(c2ccccc2)c2cc(Cl)ccc2N1CC(F)(F)F [HALAZEPAM]
- AC50 [1]: > 30 µM
- AC50 [2]: > 30 µM
- AC50 [3]: > 30 µM
- AC50 [4]: > 30 µM
- AC50 [5]: > 30 µM
- AC50 [6]: > 30 µM
- AC50 [7]: > 30 µM
- AC50 [8]: > 30 µM
- AC50 [9]: > 30 µM

Molecule: CCC1(C2=CCCCCC2)C(=O)NC(=O)NC1=O [HEPTABARBITAL]
- AC50 [1]: > 10 µM
- AC50 [2]: > 10 µM
- AC50 [3]: > 30 µM
- AC50 [4]: > 10 µM
- AC50 [5]: > 10 µM
- AC50 [6]: > 10 µM
- AC50 [7]: > 30 µM
- AC50 [8]: > 10 µM
- AC50 [9]: > 10 µM

Molecule: CCCCCN(C)CCC(O)(P(=O)(O)O)P(=O)(O)O [IBANDRONIC ACID]
- AC50 [1]: > 30 µM
- AC50 [2]: > 30 µM
- AC50 [3]: > 30 µM
- AC50 [4]: > 30 µM
- AC50 [5]: > 30 µM
- AC50 [6]: > 30 µM
- AC50 [7]: > 30 µM
- AC50 [8]: > 30 µM
- AC50 [9]: 6.2 µM

Molecule: C1=Cc2cccc(OCC3CNCCO3)c2C1 (stereo not drawn) [INDELOXAZINE]
- AC50 [1]: > 30 µM
- AC50 [2]: 0.7 µM
- AC50 [3]: > 30 µM
- AC50 [4]: > 30 µM
- AC50 [5]: 17 µM
- AC50 [6]: > 30 µM
- AC50 [7]: > 30 µM
- AC50 [8]: > 30 µM
- AC50 [9]: > 30 µM

Molecule: COc1ccc(C(=O)NCc2ccc(OCCN(C)C)cc2)cc1OC [ITOPRIDE]
- AC50 [1]: > 30 µM
- AC50 [2]: > 30 µM
- AC50 [3]: > 30 µM
- AC50 [4]: > 30 µM
- AC50 [5]: > 30 µM
- AC50 [6]: > 30 µM
- AC50 [7]: > 30 µM
- AC50 [8]: > 30 µM
- AC50 [9]: > 30 µM

Molecule: O=C(O)Cc1cn(-c2ccccc2)nc1-c1ccc(Cl)cc1 [LONAZOLAC]
- AC50 [1]: > 30 µM
- AC50 [2]: > 30 µM
- AC50 [3]: > 30 µM
- AC50 [4]: > 30 µM
- AC50 [5]: > 30 µM
- AC50 [6]: > 30 µM
- AC50 [7]: > 30 µM
- AC50 [8]: > 30 µM
- AC50 [9]: > 30 µM

Molecule: O=C(OCCN1CCOCC1)c1cccnc1Nc1cccc(C(F)(F)F)c1 [MORNIFLUMATE]
- AC50 [1]: > 30 µM
- AC50 [2]: 17 µM
- AC50 [3]: > 30 µM
- AC50 [4]: > 30 µM
- AC50 [5]: > 30 µM
- AC50 [6]: > 30 µM
- AC50 [7]: > 30 µM
- AC50 [8]: > 30 µM
- AC50 [9]: > 30 µM

Molecule: Cc1ccc(-c2nc3ccc(C)cn3c2CC(=O)N(C)C)cc1 [ZOLPIDEM]
- AC50 [1]: > 30 µM
- AC50 [2]: > 30 µM
- AC50 [3]: > 30 µM
- AC50 [4]: > 30 µM
- AC50 [5]: > 30 µM
- AC50 [6]: > 30 µM
- AC50 [7]: > 30 µM
- AC50 [8]: > 30 µM
- AC50 [9]: > 30 µM

Molecule: TOCOFERSOLAN
- AC50 [1]: > 30 µM
- AC50 [2]: > 30 µM
- AC50 [3]: > 30 µM
- AC50 [4]: > 30 µM
- AC50 [5]: > 30 µM
- AC50 [6]: > 30 µM
- AC50 [7]: > 30 µM
- AC50 [8]: > 30 µM
- AC50 [9]: > 30 µM
